experiment: A549 cytotoxicity assay; type: cell-based; details: human, A549 cells (human lung carcinoma)

Which IC50 at 72 h does the source give for `C=C(C)[C@@H]1CC(=O)[C@H]2[C@H](C1)[C@@H]1C(=O)O[C@@H]3C[C@]4(C)O[C@H]2C(=O)[C@@H]4[C@H]13` [ineleganolide (7), ineleganolide] here?
The IC50 at 72 h was greater than 50 µg/mL.

Which IC50 at 72 h does the source give for `C=C(C)[C@@H]1/C=C/[C@]23O[C@H]2[C@H](C[C@@]2(C)O[C@@H]2C2=CC(C=O)=C(C1)O2)OC3=O` [keikipukalide A (1), keikipukalide A] here?
The IC50 at 72 h was greater than 50 µg/mL.

Which IC50 at 72 h does the source give for `C=C(C)[C@H]1CC2=C(C=O)C=C(O2)[C@H]2O[C@]2(C)C[C@@H]2OC(=O)/C(=C\[C@H]1OC(C)=O)[C@H]2OC(C)=O` [keikipukalide B (2), keikipukalide B] here?
The IC50 at 72 h was greater than 50 µg/mL.

Which IC50 at 72 h does the source give for `C=C(C)[C@@H]1C/C=C2\C(=O)O[C@@H](C[C@@]3(C)O[C@@H]3C3=CC(C=O)=C(C1)O3)[C@@H]2OC(C)=O` [keikipukalide C (3), keikipukalide C] here?
Its IC50 at 72 h is greater than 50 µg/mL.

For `C=C(C)[C@@H]1/C=C/[C@]23O[C@H]2[C@H](C[C@](C)(O)[C@@H](OC(C)=O)C2=CC(C=O)=C(C1)O2)OC3=O` [keikipukalide D (4), keikipukalide D], which IC50 at 72 h is on record?
The IC50 at 72 h was greater than 50 µg/mL.

For `C=C(C)[C@H]1CC2=C(C=O)C=C(O2)[C@H]2O[C@]2(C)C[C@H]2C=C(C(=O)O2)[C@@H](OC(C)=O)C1` [keikipukalide E (5), keikipukalide E], which IC50 at 72 h is on record?
The IC50 at 72 h was greater than 50 µg/mL.

With `C=C(C)[C@@H]1CCC2=C[C@H](C[C@@]3(C)O[C@@H]3C3=CC(C=O)=C(C1)O3)OC2=O` [pukalide aldehyde (6), pukalide aldehyde] as the compound, how does the IC50 at 72 h read?
The IC50 at 72 h was greater than 50 µg/mL.

— publication PMC5791048 (Journal of Natural Products, 2017)
